Data on 13 compounds can be found in patent US20090075925A1, “Methods and Compositions Related to APOBEC-1 Expression” (priority 2006, published 2009).

Data set [1] has as its system ACF. The data set is described as follows: ACF phosphorylation in 32P-labeled rat primary hepatocytes (ACF immunoprecipitation, autoradiography). The class given is cell-based. How it is done:
In vivo phosphorylation of ACF. In vivo ^32P labeling was performed by intraperitoneal injection of rats with 12.5 mCi of orthophosphoric acid (10 mCi/ml ^32PO4; NEN, Boston, Mass.) buffered with 50 mM HEPES, pH 7.0 and 150 mM NaCl. After 4 hours, rats were sacrificed and hepatic cytoplasmic and nuclear extracts prepared. Primary hepatocyte cultures in 60 mm dishes were incubated in phosphate-free Minimum Essential Eagle Media (Sigma) containing 0.1 nM porcine insulin for 6 hours and subsequently in fresh media containing 10 nM insulin (equivalent to that seen in post-prandial serum) or 0.45% to 0.9% ethanol (AAPER Alcohol and Chemical Co., Shelbyville, Ky.) (Van Mater et al. (1998), Yang et al. (2000)) plus 2.0 mCi orthophosphoric acid. Cultures were labeled for 4 hours prior to extract preparation.
To evaluate the effect of phosphatase inhibition on ACF phosphorylation, cultures were pre-incubated for 2 hours with 470 nM cantharadin in phosphate-free Waymouth's media and subsequently supplemented with 0.5 mCi ^32pO4 and incubated for an additional 4 hours. Cultures were harvested and subcellular extracts prepared.
Immunological techniques. […] For immunoprecipitation analyses all radiolabeled extracts were adjusted to 5 mM MgCl2 and digested with 100 units of DNase I (Promega), RNase T1 (Roche, Ind.), and RNase A (Sigma) for 1 hour on ice to remove radiolabeled nucleic acid. Where applicable, extracts were incubated overnight with ACF CT antibody at 4° C. and subsequently reacted with Protein A-agarose (Oncogene Research Products, Boston, Mass.) pre-washed with 1×TBS/10 mM NaF. The immuno-absorbed material was washed 3 times with 1×TBS/10 mM NaF, 3 times with 1×TBS/1 M NaCl (Yang et al. (1997)) and lastly 3 times with 1×TBS. Immuno-absorbed material to be treated with alkaline phosphatase was washed with 50 mM Tris, pH 8.4, 1 mM MgCl2, 0.1 mM ZnCl2, 25% glycerol and then incubated with 5 U CIAP for 1 hour at 30° C. and then washed 6 times with 1×TBS. ACF-antibody complexes were eluted with 3 M sodium thiocyanate, acetone precipitated and analyzed by 10.5% SDS-PAGE followed by autoradiography and/or western blotting with ACF NT antibody. For ACF immunoprecipitation from gradient fractions an equal volume of pooled gradient fractions from sedimentation zones of interest were reacted with sub-saturating amounts of ACF CT antibody to ensure that the recovery of phospho-ACF was not simply a reflection of ACF abundance in each zone.
To evaluate this, cytoplasmic and nuclear extracts from radiolabeled primary hepatocyte cultures were sedimented through 10%-50% glycerol gradients. […] The ACF immunoprecipitates were resolved by SDS-PAGE, transferred to nitrocellulose, autoradiographed and subjected to phosphorimager scanning to detect and quantify radiolabeled proteins prior to immunoblotting with the ACF NT antibody.

Data set [2] relates to ACF.
Data set [3] relates to PP1. Conditions: cited from earlier work.
Data set [4] concerns PP2A. Conditions: cited from earlier work.
Data set [5] deals with apoB mRNA editing. Conditions: for apoB mRNA editing, Mean ± SEM: 6 hours; for apoB mRNA editing (increased from 66%): about 10 times the IC50 for PP1 (cantharidin 4.7 μM). How it is done:
Protein phosphatase inhibitor studies. […] The compounds' effects on apoB mRNA editing were evaluated by RT-PCR and poisoned-primer extension analysis (Sowden et al. Rna 2:274-88 (1996)). The effect of 470 nM cantharidin on ACF subcellular distribution was investigated by treating primary hepatocyte cultures for 6 hours followed by nuclear and cytoplasmic extract preparation.
It was reasoned that if phosphorylation of ACF regulated editing activity, treatment of rat primary hepatocytes with phosphatase inhibitors might stimulate apoB mRNA editing activity. […] The experiments (n=4-6) were done over a number of months and therefore represent primary hepatocytes from several rats.
Editing activity was quantified from primary hepatocytes incubated with 10-100-times the EC50 of the various […] (Calbiochem).

The subject of data set [6] is apoB protein. The data set is described as follows: intracellular and secreted apoB protein in primary hepatocytes (radioimmunoassay). The class given is cell-based, rat. On the procedure:
The effect of Cantharidin on the abundance of intracellular and secreted apoB protein was also evaluated. Primary hepatocyte cultures were treated with Cantharidin at the IC50 of PP1 and 10-times higher (n=5 for each condition). Intracellular apoB protein in hepatocyte cytoplasmic extracts and apoB protein secreted into the media as VLDL was quantified as ng apoB protein per mg total protein in the Sparks' lab by radioimmunoassay using a monoclonal antibody against apoB as described previously (Chirieac et al. (2000), Au et al. (2004), Sparks, J D and Sparks, C E J Biol Chem 265:8854-62 (1990)) (FIG. 13). For these experiments, insulin was withdrawn from control and Cantharidin-treated cultures 24 hours prior to the addition of Cantharidin in order to isolate the effect of PP 1 inhibition in the absence of insulin stimulated kinase activity.
If alterations in ACF phosphorylation are consequently to ApoB metabolism, then intracellular ApoB protein abundance should be responsive to inhibition of PP1. This was evaluated in treated primary hepatocytes by quantifying ApoB protein in hepatocyte cytoplasmic extracts and secreted into the media as VLDL using ApoB radioimmunoassay and expressed as ng ApoB protein per mg total protein (FIG. 13). For these experiments insulin was withdrawn from control and cantharidin-treated cultures 24 hours prior to the addition of cantharidin in order to isolate the effect of PP I inhibition in the absence of insulin stimulated kinase activity. […] This is the same dose response that was reported for maximal phospho-ACF recovery Mehta, A. et al (2002)).

The test system of data set [7] is AC. Conditions: cited from earlier work.
Data set [8] relates to apoB mRNA editing. As to the kind of experiment: apoB mRNA editing in McArdle cells (ethanol, ACF wild type, mutants and isoforms). It is filed as cell-based, rat. The conditions noted are these: wild type McArdle cells, ethanol 4 hours. On the procedure: McArdle RH7777 cells (ATCC Manassas, Va.) stably expressing HA epitope-tagged APOBEC-1 (Yang et al. J Biol Chem 272:27700-6 (1997)) were treated for 4 hours with 0.9% ethanol and fractionated into nuclear extracts (Van Mater et al. (1998)).
To calibrate the system cells were incubated in the presence of ethanol for 4 hours and the amount of edited apoB mRNA determined.
The overall expression and subcellular localization of epitope tagged ACF isoforms is established by western blotting of nuclear and cytoplasmic extracts (prepared using NE-PER system; Pierce). These biochemical studies are complemented by immunofluorescence microscopy of paraformaldehyde fixed cells reacted with epitope tag or ACF isoform-specific antibodies. In pilot experiments varying levels of HA-tagged ACF43 and ACF45 were expressed by transfecting differing amounts of cDNA into McArdle or McAPOBEC cells (FIGS. 35A & C, western blots). […] ACF expression levels, subcellular localization and editing activity are determined from replicate experiments and the relative affects of overexpressing each isoform compared in the absence (negative control) or presence of ethanol and to the response seen in wild type cells (positive control).

Where [9] appears, read: 0.5 μM (IC50 of PP1), insulin withdrawn 24 hours before.
Setting [10] is: activation of cAMP dependent kinases.

pEC50, pIC50: −log10 of the molar value. Where two headings read alike, the source gives them in different places.

`C[C@@]12C(=O)OC(=O)[C@]1(C)[C@H]1CC[C@@H]2O1` [Cantharidin]: the ACF phosphorylation entry in data set [1] (470 nM) is “increased”. Besides, the “nuclear ACF (control nuclear to cytoplasmic 1:1)” value in data set [2] (470 nM, 4 hours) is “five-fold increase in nuclear ACF”. Besides, the “nuclear ACF compared to untreated control hepatocytes” value in data set [2] (0.5 μM (IC50 of PP1)) is listed as “marked increase in nuclear ACF”. Further, the negative-log IC50 (pIC50) in data set [3] was 6.33; in data set [3] (listed as cantharidin) it was 6.33; in data set [4], 7.40; in data set [4] (listed as cantharidin) it was 7.33. In addition, the “apoB mRNA editing, Mean ± SEM” value in data set [5] (4.7 nM) was 62 ± 2%; in data set [5] (47 nM), 64 ± 1%; in data set [5] (470 nM), 75 ± 1%; in data set [5] (4.7 μM), 91 ± 1%. For the same compound, the “effect on apoB mRNA editing” value in data set [5] (470 nM, the IC50 for PP1) was “reproducible, but not statistically significant increase in editing”; in data set [5] (concentration not given), “stimulated apoB mRNA editing”. Besides, the “apoB mRNA editing (increased from 66%)” value in data set [5] is more than 90%. Besides, in data set [6] (setting [9]), the “reduction in intracellular (cell) apoB relative to untreated hepatocytes” value amounted to 22%. Also, in data set [6] (setting [9]), the “reduction in secreted (media) apoB relative to untreated hepatocytes” value was 17%. In addition, the “reduction in secreted apoB” value in data set [6] (5 μM) is listed as not below 30%. Besides, in data set [6] (5 μM (10-times the IC50)), the “reduction in intracellular apoB” value is recorded as not below 60%.

For the compound `CC1(C)C(C=C(Cl)Cl)C1C(=O)OC(C#N)c1cccc(Oc2ccccc2)c1` (centres unmarked) [Cypermethrin], the results for the “apoB mRNA editing, Mean ± SEM” value in data set [5] (50 pM) and in data set [5] (5 nM) were 69 ± 4% and 66 ± 4%, respectively. In addition, the “effect on apoB mRNA editing” value in data set [5] (concentration not given) is recorded as “did not affect significantly apoB mRNA editing”.

In the case of `O=C(O)[C@@H]1[C@H](C(=O)O)[C@H]2CC[C@@H]1O2` [Endothall], the “apoB mRNA editing, Mean ± SEM” value in data set [5] (100 nM) is 66 ± 2%; in data set [5] (500 nM), 65 ± 2%; in data set [5] (5 μM), 64 ± 3%; in data set [5] (50 μM), 83 ± 2%. In addition, the “effect on apoB mRNA editing” value in data set [5] (10-times the IC50 for PP1) is on record as “stimulated editing to statistically significant levels”.

For the compound `C=C[C@@]1(C)CC(=O)[C@]2(O)[C@@]3(C)[C@@H](O)CCC(C)(C)[C@@H]3[C@H](O)[C@H](OC(C)=O)[C@@]2(C)O1` [Forskolin], the “apoB mRNA editing, Mean” value is reported as 70.6% in data set [5] (4 μM), 68.5% in data set [5] (40 μM) and 69% in data set [5] (120 μM).

Consider `O=S(=O)(NCCNC/C=C/c1ccc(Br)cc1)c1cccc2cnccc12` [H89], for which the “effect on editing in hepatocytes” value in data set [5] is “stimulated”.

As to `CC(C)NCC(O)c1ccc(O)c(O)c1` (centres unmarked) [Isoproterenol], the pEC50 was 4.30 in data set [7] (setting [10]) and 4.00 to 9.00 in data set [7] (range printed with mixed units).

In the case of `COc1ccc(S(=O)(=O)N(CCO)c2ccccc2CN(C)C/C=C/c2ccc(Cl)cc2)cc1` [KN93], the “effect on editing in hepatocytes” value in data set [5] is “stimulated”.

For `O=S(=O)(c1cccc2c(I)cccc12)N1CCCNCC1` [ML-7], in data set [5], the “effect on editing in hepatocytes” value is listed as “did not affect editing”.

Take `C=C1[C@@H](O)[C@@H]2O[C@]3(CC[C@H](/C=C/[C@@H](C)[C@@H]4CC(C)=C[C@@]5(O[C@H](C[C@@](C)(O)C(=O)O)CC[C@H]5O)O4)O3)CC[C@H]2O[C@@H]1[C@@H](O)C[C@H](C)[C@H]1O[C@@]2(CCCCO2)CC[C@H]1C` [Okadaic acid]: the “apoB mRNA editing, Mean ± SEM” value in data set [5] (1 nM) turned out to be 72 ± 4%; in data set [5] (10 nM), 74 ± 4%; in data set [5] (100 nM), 91 ± 2%. In data set [5], the “apoB mRNA editing (increased from 66%)” value is “greater than 90%”. The “effect on apoB mRNA editing” value in data set [5] (concentration not given) was “stimulated”.

As for `COc1cccc(-c2cc(=O)c3ccccc3o2)c1N` [PD98059], the “effect on editing in hepatocytes” value in data set [5] is given as “did not affect editing”.

Take `CCCCCCCCCCCCCC(=O)O[C@@H]1[C@@H](C)[C@@]2(O)[C@@H](C=C(CO)C[C@]3(O)C(=O)C(C)=C[C@@H]23)[C@@H]2C(C)(C)[C@]12OC(C)=O` [PMA]: the “apoB mRNA editing, Mean” value in data set [5] (500 nM) was determined as 68.8%; in data set [5] (5 μM) it was 64.9%; in data set [5] (50 μM), 63%.

For the compound `CCO` [ethanol], in data set [1] (0.45% ethanol, 4 hours), the “increase of phosphoACF in nuclear 27S editosomes” value came to 3.5 fold. The “increase of phosphoserine in immunopurified ACF” value in data set [1] (0.9% ethanol during the labeling period) stood at 1.5 fold. Also, the “editing in metabolic state of rat hepatocytes (model, basal ~65%)” value in data set [5] is approximately 95%. In data set [8], the “increase in editing activity” value is on record as 52% and the “percent editing (from 21%)” value amounted to 32%.

As to Glucagon, the pEC50 was 7.00 to 10.00 in data set [7] (setting [10]) and 7.30 in data set [7] (activation of cAMP dependent kinases, listed as glucagon). Moreover, the “apoB mRNA editing, Mean” value is on record as 62.2% in data set [5] (1 nM), 59.5% in data set [5] (10 nM) and 58.3% in data set [5] (100 nM).
